# Source: US8378070B2, “Peptides for the regulation of neurotransmitter sequestration and release” (Ramot at Tel-Aviv University Ltd., priority 2007, dated 2013)
# B1: DJ-1: wild type DJ-1 overexpressed by stable transfection with pIRES2-acGFP1 plasmid; GenBank AB073864 (protein, listed as Homo sapiens)
# chain: MASKRALVILAKGAEEMETVIPVDVMRRAGIKVTVAGLAGKDPVQCSRDVVICPDASLEDAKKEGPYDVVVLPGGNLGAQNLSESAAVKEILKEQENRKGLIAAICAGPTALLAHEIGCGSKVTTHPLAKDKMMNGGHYTYSENRVEKDGLILTSRGPGTSFEFALAIVEALNGKEVAAQVKAPLVLKD
# Legend:
# ERK 1,2 = test system: ERK 1,2
# Experimental: Cells were treated with dopamine (0-500 uM; Sigma. Israel), N-acetylcysteine (NAC 5 mM; Sigma), and PD-98059 (30 uM; Calbiochem, Rosh Haayin, Israel).
# Protein extraction and Western blotting: Protein extraction and Western blotting were done as previously described [Lev, N., et al Antioxid. redox signal. 8, 1987-1995 (2006)]. The membranes were probed with rabbit anti-DJ 1 antibody (1:1000; Chemicon Laboratories), mouse anti-VMAT2 (1:100; Chemicon Laboratories), and rabbit anti emerin (1:5000; Santa Cruz), followed by horseradish peroxidase conjugated secondary antibody (1:10000; Sigma) and developed with the Super Signal West Pico Chemiluminescent substrate (Pierce Biotechnology). Densitometry of the specific protein bands was preformed by VersaDoc® imaging system and Quantity One® software (BioRad).
# Immunocytochemistry: Cells were fixed with 4% paraformaldehyde and permeabilized with 0.5% Triton X-100 and were then incubated in a blocking solution followed by overnight incubation with rabbit anti-VMAT2 (1:100; Chemicon Laboratories), at 4° C. followed by incubation with alexa-568 conjugated goat anti rabbit antibodies (1:1000; Molecular probes). Nuclei were counterstained by 4′,6-Diamidino-2-phenylindole dihydrochloride (DAPI, Sigma).
# [1] = test system: SH-SY5Y human neuroblastoma cells; test: Intracellular reactive oxygen species (DCF assay); format: cell-based
# Experimental: (§1) Cellular transfection and treatment: SH-SY5Y human neuroblastoma cells, obtained from the ATCC (Rockville, USA), were stably transfected with pIRES2-acGFP1 plasmid (BD biosciences, Clontech) containing wild type DJ-1. Decreased expression of DJ-1 was achieved by stable transfection with pSilencer2.1-U6 plasmid (Ambion) containing siRNA for DJ-1. As controls, naïve neuroblastoma cells were used as well as cells stably transfected with the same vectors. Transfections were performed using the lipofectamine 2000 reagent (Invitrogen). Stable transfections were achieved by geneticin treatment and were verified by measuring DJ-1 mRNA and protein levels using real-time PCR and Western blotting.
# Measurement of intracellular reactive oxygen species (ROS): The generation of ROS, after exposure to increasing dopamine concentrations, was measured using H2DCFDA (Sigma), which is incorporated into the cells and cleaved into fluorescent DCF in the presence of ROS. 10 μM H2DCFDA was added to the cell suspension, and the cells were incubated in the dark at 37° C. for 10 minutes. DCF fluorescence was measured by FLUOstar spectrofluorometer microplate reader at 520 nm. The generation of ROS was quantitatively assayed by the increase in DCF fluorescence and expressed as percentage of control. Each experiment was repeated at least 3 times in triplicates.
# VMAT2 promotor = conditions: after exposure to 50 μM dopamine
# Experimental: Chromatin immunoprecipitation: ChIP assays using cultured neuroblastoma cells were performed following Upstate instructions. After protein-DNA cross-linking by paraformaldehyde, cells were harvested and the pellets were resuspended in lysis-buffer and sonicated on ice (5 sets of 15-s pulse at 40% maximal power). After pre-clearing with Protein G/A-agarose, aliquots were incubated with DJ-1 antibodies or non-specific antibodies (as control) overnight at 4° C. with rotation. Immunopercipitated DNA was used as templates for the following primers, designed for the human VMAT promotor: sense: [sequence]
# VMAT2 mRNA = test: Real time quantitative PCR of VMAT2 mRNA; format: cell-based, human
# Experimental: Cellular transfection and treatment: SH-SY5Y human neuroblastoma cells, obtained from the ATCC (Rockville, USA), were stably transfected with pIRES2-acGFP1 plasmid (BD biosciences, Clontech) containing wild type DJ-1. […] As controls, naïve neuroblastoma cells were used as well as cells stably transfected with the same vectors. Transfections were performed using the lipofectamine 2000 reagent (Invitrogen). Stable transfections were achieved by geneticin treatment and were verified by measuring DJ-1 mRNA and protein levels using real-time PCR and Western blotting. […] RNA isolation and Real time quantitative PCR: Total RNA was isolated from cultured neuroblastoma cells using a commercial reagent TriReagentTM (Sigma). The amount and quality of RNA was determined spectrophotometrically using the ND-1000 spectrophotometer (NanoDrop). […] Real-time quantitative reverse transcription polymerase chain reaction (PCR) of the desired genes was performed in an ABI Prism 7700 sequence detection system (Applied biosystems) using Sybr green PCR master mix (Applied biosystems) and the following primers: GAPDH (used as 'housekeeping' gene) sense: […] […] Real time quantitative PCR (qPCR) was performed using AbsoluteTM QPCR SYBR® Green ROX Mix, in triplicates. Quantitative calculations of the gene of interest versus GAPDH were done using the ddCT method.
# DJ-1 mRNA = test: Real time quantitative PCR of DJ-1 mRNA; format: cell-based, human
# Experimental: Cellular transfection and treatment: SH-SY5Y human neuroblastoma cells, obtained from the ATCC (Rockville, USA), were stably transfected with pIRES2-acGFP1 plasmid (BD biosciences, Clontech) containing wild type DJ-1. […] As controls, naïve neuroblastoma cells were used as well as cells stably transfected with the same vectors. Transfections were performed using the lipofectamine 2000 reagent (Invitrogen). Stable transfections were achieved by geneticin treatment and were verified by measuring DJ-1 mRNA and protein levels using real-time PCR and Western blotting. […] RNA isolation and Real time quantitative PCR: Total RNA was isolated from cultured neuroblastoma cells using a commercial reagent TriReagentTM (Sigma). The amount and quality of RNA was determined spectrophotometrically using the ND-1000 spectrophotometer (NanoDrop). First-strand cDNA synthesis was carried out from […] of the total RNA using random primer (Invitrogen) and RT-superscript II (Invitrogen) reverse transcriptase. Real-time quantitative reverse transcription polymerase chain reaction (PCR) of the desired genes was performed in an ABI Prism 7700 sequence detection system (Applied biosystems) using Sybr green PCR master mix (Applied biosystems) and the following primers: GAPDH (used as 'housekeeping' gene) sense: […] NO: 7), GAPDH antisense: […] NO: 8); DJ-1 sense: […] ID NO: 9) DJ-1 antisense: […] ID NO:10) VMAT2 sense: […] ID NO: 11) VMAT2 antisense: […] NO: 12). Real time quantitative PCR (qPCR) was performed using AbsoluteTM QPCR SYBR® Green ROX Mix, in triplicates. Quantitative calculations of the gene of interest versus GAPDH were done using the ddCT method.
# [2] = test system: SH-SY5Y human neuroblastoma cells; test: MTT cell viability assay; format: cell-based
# Experimental: as §1
# Cell viability: Cell viability was determined by the MTT (3-(4,5-dimethylthiazole-2-yl)-2,5-diphenyltetrazolium bromide, Sigma) reduction assay. Viability after exposure to increasing dopamine levels was analyzed by adding MIT solution to each well followed by incubation at 37° C. for 3 hours. Absorbance was determined at 564 nm in a microplate reader. Cell viability was evaluated in triplicate for each treatment. All experiments were repeated at least 3 times.
# DJ-1 protein = test: Western blotting of DJ-1 protein in neuroblastoma cells; format: cell-based, human
# Experimental: as §1, with “Decreased expression of DJ-1 was achieved by stable transfection with pSilencer2.1-U6 plasmid (Ambion) containing siRNA for DJ-1.” left out, “blotting. […] 8, 1987-1995 (2006)].” for “blotting.”
# striatum = test: In vivo 6-hydroxydopamine hemiparkinsonian mouse model, striatal Western blotting; conditions: mice
# Experimental: In vivo 6-hydroxydopamine hemiparkinsonian mouse model: Eight-week-old male C57BL/6 mice (Harlan, Israel; 22-28 g) were used for 6-hydroxydopamine hemiparkinsonian mouse model experiments. All animals were housed in standard conditions, in a constant temperature (22±1° C.), relative humidity (30%), 12-h light: 12-h dark cycle, with free access to food and water. Surgical procedures were performed under the supervision of the Animal Care Committee at the Rabin Medical Center and at Tel Aviv University, Tel Aviv, Israel. Mice received a unilateral, right intrastriatal injection of […] 6-hydroxydopamine hydrobromide (Sigma, Israel) using a stereotaxic surgical procedure. Injections were targeted to the central striatum using the following coordinates: 0.5 mm anterior to bregma, 2.0 mm lateral to bregma, and 2.5 mm deep to the skull surface. Treatments were administered in a volume of 2.0 μL at a rate of 0.5 μL/min. 24 hours after 6-hydroxydopamine lesioning, striatal tissue was collected from both the injected and intact sides for DJ-1, VMAT2 and TH analysis. For analysis of acute 6-hydroxydopamine effects on phosphokinases striatal tissue was excised after 30 and 45 minutes of 6-hydroxydopamine injection.
# VMAT2 = target: T1, VMAT2 (Homo sapiens, UniProt Q05940); test: KCl-induced [3H]dopamine release; format: cell-based
# T1 construct: endogenous in cells; host or cells: SH-SY5Y human neuroblastoma cells (naive, stably transfected with wild type DJ-1, or with siRNA for DJ-1)
# T1 sequence (Q05940 whole entry): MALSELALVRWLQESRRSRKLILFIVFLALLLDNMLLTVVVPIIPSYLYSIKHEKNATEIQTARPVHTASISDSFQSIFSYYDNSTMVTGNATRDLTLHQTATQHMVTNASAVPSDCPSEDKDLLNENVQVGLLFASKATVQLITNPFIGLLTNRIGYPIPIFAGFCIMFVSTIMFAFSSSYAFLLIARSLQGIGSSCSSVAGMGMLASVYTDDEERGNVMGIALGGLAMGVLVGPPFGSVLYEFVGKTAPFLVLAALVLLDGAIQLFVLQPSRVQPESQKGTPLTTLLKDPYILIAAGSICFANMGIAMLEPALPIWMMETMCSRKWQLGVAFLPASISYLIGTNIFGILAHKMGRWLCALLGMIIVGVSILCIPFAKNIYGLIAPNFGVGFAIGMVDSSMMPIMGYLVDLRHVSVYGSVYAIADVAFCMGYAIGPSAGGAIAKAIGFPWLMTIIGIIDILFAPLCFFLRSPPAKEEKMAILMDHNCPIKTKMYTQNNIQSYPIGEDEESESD
# Experimental: KCl-induced dopamine release: Cells were plated on poly-D-lysin-coated 24-well plates. Cells were rinsed with assay buffer (containing Tris 4 mM, HEPES 6.25 mM, NaCl 120 mM, KCl 5 mM, CaCl2 1.2 mM, MgSO4 1.2 mM, D-glucose 5.6 mM and ascorbic acid 0.5 mM) and were then incubated with 0.5 uCi/ml [3H]Dopamine (Amersham Biosciences) for 20 minutes at 37° C. To measure stimulation-induced [3H]Dopamine release, [3H]Dopamine-loaded cells were rinsed extensively with ice cold buffer, and were treated with 60 mM KCl for 20 minutes at 37° C. and extracellular [3H]Dopamine was measured. Inhibition of VMAT2 was done using dihydrotetrabenazine (0-1 mM). All samples were analyzed with Packard liquid scintillation counter. Experiments were conducted in triplicates and repeated three times.
# [3] = test system: tyrosine hydroxylase (TH); test: Tyrosine hydroxylase mRNA (real time PCR) and ChIP of TH promotor; format: cell-based, human; conditions: DJ-1 overexpressing cells, GAPDH reference
# Experimental: RNA isolation and Real time quantitative PCR: Total RNA was isolated from cultured neuroblastoma cells using a commercial reagent TriReagent™ (Sigma). The amount and quality of RNA was determined spectrophotometrically using the ND-1000 spectrophotometer (NanoDrop). First-strand cDNA synthesis was carried out from […] of the total RNA using random primer (Invitrogen) and RT-superscript II (Invitrogen) reverse transcriptase. Real-time quantitative reverse transcription polymerase chain reaction (PCR) of the desired genes was performed in an ABI Prism 7700 sequence detection system (Applied biosystems) using Sybr green PCR master mix (Applied biosystems) and the following primers: GAPDH (used as ‘housekeeping’ gene) sense: CGACAGTCAGCCGCATCTT (SEQ ID NO: 7), GAPDH antisense: […] (SEQ ID NO: 8); DJ-1 sense: […], (SEQ ID NO: 9) DJ-1 antisense: […], (SEQ ID NO:10) VMAT2 sense: […], (SEQ ID NO: 11) VMAT2 antisense: […] (SEQ ID NO: 12). Real time quantitative PCR (qPCR) was performed using Absolute™ QPCR SYBR® Green ROX Mix, in triplicates. Quantitative calculations of the gene of interest versus GAPDH were done using the ddCT method.
# [4] = PD98059 30 uM, inhibition of ERK1,2 phosphorylation
molecule,measurement,setting,value
NCCc1ccc(O)c(O)c1 [dopamine],"Time to phosphorylation of ERK 1,2 after dopamine exposure","ERK 1,2; naive neuroblastoma, Western blotting and immunocytochemistry",20 to 60 min
same,Phosphorylation of ERK 1 and 2 after dopamine exposure,"ERK 1,2; naïve neuroblastoma cells",rapid phosphorylation
same,Intracellular ROS (DCF assay) after dopamine exposure,"[1]; increasing dopamine concentrations, neuroblastoma cells",increased intracellular ROS
same,VMAT2 promotor precipitated by anti-DJ-1 antibodies (ChIP),VMAT2 promotor,higher amounts of VMAT2 promotor were precipitated
same,VMAT2 mRNA elevation of basal level,"VMAT2 mRNA; 50 μM dopamine, after 7 hours, naïve neuroblastoma cells",60 fold
same,Increase in DJ-1 mRNA,"DJ-1 mRNA; 50 μM dopamine, within 1 hour, naïve neuroblastoma cells",2.5 fold
same,Cell viability (MTT) after dopamine exposure,"[2]; dopamine 0-500 uM, 24 hours, neuroblastoma cells",dose dependent cell death
same,DJ-1 protein after dopamine exposure (Western blot),DJ-1 protein; naïve neuroblastoma cells,Increased DJ-1 protein
"Br.NCCc1cc(O)c(O)cc1O [6-hydroxydopamine, 6-hydroxydopamine hydrobromide]","ERK1,2 phosphorylation in striatum","striatum; acute exposure, intrastriatal injection, 30 and 45 minutes","increased phosphorylation of ERK1, 2"
same,DJ-1 and VMAT-2 protein expression in lesioned vs unlesioned striatum,"striatum; unilateral intrastriatal injection, 24 hours",increased expression of DJ-1 and of VMAT-2 proteins
"CC(=O)N[C@@H](CS)C(=O)O [NAC, N-acetylcysteine]",Effect on dopamine-induced DJ-1 mRNA upregulation,"DJ-1 mRNA; pre-treatment with NAC 5 mM, naïve neuroblastoma",abolished DJ-1 mRNA upregulation
COc1cccc(-c2cc(=O)c3ccccc3o2)c1N [PD98059],Effect on dopamine-induced DJ-1 mRNA upregulation,DJ-1 mRNA; [4],inhibited DJ-1 mRNA upregulation
same,Effect on dopamine-induced DJ-1 protein upregulation (Western blot),DJ-1 protein; [4],abolished DJ-1 protein upregulation
COc1cc2c(cc1OC)[C@H]1C[C@@H](O)[C@H](CC(C)C)CN1CC2 [dihydrotetrabenazine],KCl induced dopamine release,"VMAT2; dihydrotetrabenazine 0-1 mM, 60 mM KCl 20 minutes",abolished
B1,Dopamine-induced intracellular ROS (DCF assay),[1]; transfected SH-SY5Y cells vs naïve neuroblastoma,decreased intracellular ROS
same,VMAT2 expression level compared to control (mRNA),VMAT2 mRNA; stably transfected SH-SY5Y cells,over 500 fold
same,DJ-1 mRNA and protein levels in overexpressing cells,DJ-1 mRNA; stable transfection with wild type DJ-1,over 3 fold
same,KCl-induced dopamine release from synaptic vesicles compared to naïve neuroblastoma cells,VMAT2; transfected SH-SY5Y cells,released more dopamine
same,TH mRNA levels (real time PCR),[3],upregulation of TH mRNA
same,Protection against rotenone and 6-hydroxydopamine,[2]; DJ-1 overexpressing neuroblastoma cells,protects against dopaminergic toxins
same,Vulnerability to dopamine toxicity (MTT viability),"[2]; dopamine 0-500 uM, 24 hours, transfected SH-SY5Y cells",conferred resistance to dopamine
